≈ marks a conversion by molar mass, not a printed value. Calls of active or inactive are those of the source. The calls are words filed in the database; no cut-off is given here.
Key:
Candida albicans [1] = assay: Induction of reactive oxygen species generation in Candida albicans ATCC 90028 assessed as ROS level at 46.05 uM after 18 hrs by DCFDA probe based flow cytometry (reference value: 0.3%); assay type: functional
Candida albicans [2] = assay: Antifungal activity against Candida albicans ATCC 90028 assessed as planktonic growth inhibition at 1.44 uM after 48 hrs by M27-A3 protocol based method relative to control; assay type: functional; conditions: ATCC 90028, 48 h, read-out: GI
[3] = Toxicity in Galleria mellonella larvae assessed as survival rate at 46.05 uM measured after 18 hrs (reference value: 100%)
[4] = Toxicity in Galleria mellonella larvae assessed as cocoon formation at 46.05 uM measured after 48 hrs (reference value: 100 +/- 0%)
[5] = Toxicity in Galleria mellonella larvae assessed as movement melanization at 46.05 uM measured after 18 hrs (reference value: 0%)
Candida albicans [6] = assay: Antifungal activity against Candida albicans ATCC 90028 assessed as planktonic growth inhibition at 11.51 uM after 48 hrs by M27-A3 protocol based method relative to control; assay type: functional; conditions: ATCC 90028, 48 h, read-out: GI
Candida albicans [7] = assay: Inhibition of Candida albicans ATCC 90028 cell adhesion to human TR146 cells at reduction in cell adherence at 46.05 uM relative to control; assay type: functional; conditions: ATCC 90028, TR146
[8] = Toxicity in Galleria mellonella larvae assessed as cocoon formation at 46.05 uM measured after 48 hrs (reference value: 85 +/- 5%)
Candida albicans [9] = assay: Antifungal activity against Candida albicans ATCC 90028 assessed as planktonic growth inhibition at 46.05 uM after 48 hrs by M27-A3 protocol based method relative to control; assay type: functional; conditions: ATCC 90028, 48 h, read-out: GI
Candida albicans [10] = assay: Antifungal activity against Candida albicans ATCC 90028 assessed as planktonic growth inhibition at 0.09 uM after 48 hrs by M27-A3 protocol based method relative to control; assay type: functional; conditions: ATCC 90028, 48 h, read-out: GI
Candida albicans [11] = assay: Cell cycle arrest in Candida albicans ATCC 90028 assessed as accumulation at G0/G1-phase by propidium iodide staining based flow cytometry; assay type: functional, organism-based
[12] = Toxicity in Galleria mellonella larvae assessed as movement melanization at 46.05 uM measured after 48 hrs (reference value: 0%)
Candida albicans [13] = assay: Selectivity index, ratio of CC50 for induction of necrosis in Candida albicans ATCC 90028 to MIC for Candida albicans ATCC 90028; assay type: functional
Candida albicans [14] = assay: Antifungal activity against Candida albicans ATCC 90028 assessed as planktonic growth inhibition at 0.18 uM after 48 hrs by M27-A3 protocol based method relative to control; assay type: functional; conditions: ATCC 90028, 48 h, read-out: GI
[15] = Toxicity in Galleria mellonella larvae assessed as cocoon formation at 46.05 uM measured after 18 hrs (reference value: 60 +/- 20%)
Candida albicans [16] = assay: Antifungal activity against Candida albicans ATCC 90028 infected in Galleria mellonella larvae assessed as induction of pathogen entrapping by haemocytes at 10 uL measured at 24 hrs interval for 144 hrs by HE staining based microscopic analysis; assay type: functional, organism-based
[17] = Toxicity in Galleria mellonella larvae assessed as survival rate at 46.05 uM measured after 120 hrs (reference value: 100%)
[18] = Selectivity index, ratio of CC50 for African green monkey Vero cells to IC50 for Candida albicans ATCC 90028; assay type: toxicity; conditions: read-out: Ratio CC50/IC50
Candida albicans [19] = assay: Antifungal activity against Candida albicans ATCC 90028 assessed as planktonic growth inhibition at 5.76 uM after 48 hrs by M27-A3 protocol based method relative to control; assay type: functional; conditions: ATCC 90028, 48 h, read-out: GI
Candida albicans [20] = assay: Induction of apoptosis in Candida albicans ATCC 90028 assessed as necrotic cells by Annexin V-FITC/propidium iodide staining based flow cytometry; assay type: functional, organism-based
Candida albicans [21] = assay: Antifungal activity against Candida albicans ATCC 90028 infected in Galleria mellonella larvae assessed as inhibition of fungus filamentation at 10 uL measured at 24 hrs interval for 144 hrs by HE staining based microscopic analysis; assay type: functional, organism-based
Candida albicans [22] = assay: Antifungal activity against Candida albicans ATCC 90028 assessed as planktonic growth inhibition at 0.72 uM after 48 hrs by M27-A3 protocol based method relative to control; assay type: functional; conditions: ATCC 90028, 48 h, read-out: GI
Candida albicans [23] = assay: Antifungal activity against Candida albicans ATCC 90028 assessed as reduction in cell growth after 48 to 72 hrs in presence of ergosterol by M27-A3 protocol based method; assay type: functional
Candida albicans [24] = assay: Antifungal activity against Candida albicans ATCC 90028 assessed as planktonic growth inhibition at 23.02 uM after 48 hrs by M27-A3 protocol based method relative to control; assay type: functional; conditions: ATCC 90028, 48 h, read-out: GI
Candida albicans [25] = assay: Antifungal activity against Candida albicans ATCC 90028 assessed as reduction in cell growth after 48 to 72 hrs by M27-A3 protocol based method; assay type: functional
Candida albicans [26] = assay: Antifungal activity against Candida albicans ATCC 90028 assessed as planktonic growth inhibition at 0.36 uM after 48 hrs by M27-A3 protocol based method relative to control; assay type: functional; conditions: ATCC 90028, 48 h, read-out: GI
[27] = Toxicity in Galleria mellonella larvae assessed as survival rate at 46.05 uM measured after 48 hrs (reference value: 100%)
Candida albicans [28] = assay: Induction of apoptosis in Candida albicans ATCC 90028 assessed as necrotic cells at 46.05 uM by Annexin V-FITC/propidium iodide staining based flow cytometry relative to control; assay type: functional
Candida albicans [29] = assay: Antifungal activity against Candida albicans ATCC 90028 assessed as planktonic growth inhibition at 2.88 uM after 48 hrs by M27-A3 protocol based method relative to control; assay type: functional; conditions: ATCC 90028, 48 h, read-out: GI
Candida albicans [30] = assay: Fungicidal activity against Candida albicans ATCC 90028 assessed as log reduction in fungal load incubated for 48 hrs followed by replating on sabouraud dextrose agar plate and measured after 48 hrs; assay type: functional
Candida albicans [31] = assay: Induction of Candida albicans ATCC 90028 internalization in mouse RAW264.7 cells assessed as reduction in fungus-induced cell damage by measuring live and early apoptotic cells at 46.05 uM after 2 hrs acridine orange/ethidium bromide staining based confocal scanning microscopic analysis; assay type: functional, organism-based
[32] = Toxicity in Galleria mellonella larvae assessed as movement melanization at 46.05 uM measured after 128 hrs (reference value: 0%)
Candida albicans [33] = assay: Antibiofilm activity against Candida albicans ATCC 90028 assessed as inhibition of biofilm formation […] after 24 hrs by XTT assay relative to control; assay type: functional, organism-based; conditions: ATCC 90028, 24 h

**Q.** Which results are given for `Cc1cccc(C2CCCN2CCCn2nnc(-c3ccccc3)n2)c1` (stereo not drawn)?
**A.** Activity (Candida albicans [1]): 7%; inhibition of growth at 1.44 µM (Candida albicans [2]): 99.4%; survival at 18 h, 46.05 µM [3]: 100%; Activity [4]: 80%; Activity [5]: 0%; inhibition of growth at 11.51 µM (Candida albicans [6]): 99.5%; inhibition at 46.05 µM (Candida albicans [7]): 98.2%; Activity [8]: 73%; inhibition of growth at 46.05 µM (Candida albicans [9]): 99.4%; inhibition of growth at 0.09 µM (Candida albicans [10]): 100%; Activity (Candida albicans [11]): Active; Activity [12]: 0%; Selectivity Index (Candida albicans [13]): 4; inhibition of growth at 0.18 µM (Candida albicans [14]): 99.4%; Activity [15]: 87%; Activity (Candida albicans [16]): Active; survival at 120 h, 46.05 µM [17]: 80%; selectivity ratio [18]: 2; inhibition of growth at 5.76 µM (Candida albicans [19]): 99.4%; IC50 (Candida albicans [20]): 46.1 µM; inhibition (Candida albicans [21]): Active; inhibition of growth at 0.72 µM (Candida albicans [22]): 99.4%; MIC (Candida albicans [23]): 23 µM; inhibition of growth at 23.02 µM (Candida albicans [24]): 99.4%; MIC (Candida albicans [25]): 11.5 µM (≈ 4 µg/mL); inhibition of growth at 0.36 µM (Candida albicans [26]): 99.5%; survival at 48 h, 46.05 µM [27]: 100%; Activity (Candida albicans [28]): 97%; inhibition of growth at 2.88 µM (Candida albicans [29]): 99.3%; log(activity) (Candida albicans [30]): -0.1; Activity (Candida albicans [31]): Active; Activity [32]: 20%; IC50 (Candida albicans [33]): 46.1 µM
